According to patent publication US7217505B2, “Method for determining whether condition is symptom of metabolic syndrome” (Cortendo AB, priority 1998, dated 2007):
Values joined by “and” are separate entries in the source; they are usually repeats but may differ in a detail not shown here. Equal values may be shown once.

Tested on: autoproduction of cortisol
Assay: dexamethasone inhibition test: serum cortisol the morning after low oral doses of dexamethasone
[1] = 'dangerously' belly fat individuals

C[C@@H]1C[C@H]2[C@@H]3CCC4=CC(=O)C=C[C@]4(C)[C@@]3(F)[C@@H](O)C[C@]2(C)[C@@]1(O)C(=O)CO [dexamethasone]
dose from which inhibition could be measured [1]: 0.25 mg
dose of maximum inhibition [1]: 0.5 to 1 mg
critical doses with significant differences between belly fat and other individuals (about 20 individuals, most distinct difference at 0.5 mg): 0.125 mg and 0.5 mg
dose at which inhibition of the autoproduction of cortisol was already obtained (normal weight individuals and those with general overweight but without belly fatness): 0.05 mg
dose of maximum inhibition of the autoproduction of cortisol (normal weight individuals and those with general overweight but without belly fatness (for a few also at 0.5 mg)): 1 mg
